# Data from PubChem BioAssay AID831 (PCMD, 2007).
# Calls of active or inactive are those of the source. How the calls were made is not given here.
# Biological target: Cathepsin S (Homo sapiens) (UniProt P25774)
# Experiment: IC50 of CTSS protease blockers – biochemical, confirmation, dose response (AID 831)
# Settings: purified cathepsin S enzyme activity, fluorescence
# Sequence of Cathepsin S (Homo sapiens) (P25774 115-331 limits assumed): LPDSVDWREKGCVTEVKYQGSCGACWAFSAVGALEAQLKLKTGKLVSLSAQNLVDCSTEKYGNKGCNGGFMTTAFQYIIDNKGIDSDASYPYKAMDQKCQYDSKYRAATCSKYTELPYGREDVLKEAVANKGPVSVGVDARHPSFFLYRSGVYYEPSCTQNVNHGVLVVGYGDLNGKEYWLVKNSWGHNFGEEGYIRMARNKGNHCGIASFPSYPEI
row,SMILES,IC50
1,CC(=O)c1c(O)n(C)c(=S)n(-c2ccccc2)c1=O,> 50 µM (inactive)
2,N#CC1=C(N)Oc2c(sc3ccccc23)C1c1ccco1 (centres undefined),> 50 µM (inactive)
3,CCN1CC=C2C(C#N)=C(N)C(C#N)(C#N)C(CCc3ccccc3)C2C1 (centres undefined),6.55 µM
4,CC1=C(C(=O)Nc2ccc(F)cc2)C(c2cccc(C)c2)n2nc(CCCO)nc2N1 (centres undefined),> 50 µM (inactive)
